Test results published in PubChem BioAssay (NCI).
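Compound exposure: 48 hours, 5 concentrations, 96-well plates. At the TGI there is no net growth.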 Where a SMILES comes first, the peptide text is derived from it. Bridges are numbered along the chain shown (N, C = ends). [ ]: non-standard residue; d: D form. The star is where a group is joined. Cya = N[CH](CS(=O)(=O)O)C(=O)O; X49 = CC(C)CCCCCCCC(O)CC(=O)*; GABA = NCCCC(=O)O

How the values were obtained:
Assay in all cases: DTP human tumour cell line panel, 48 h
SK-MEL-28 melanoma = system: SK-MEL-28 melanoma
HCT-15 colon = system: HCT-15 colon
OVCAR-8 ovarian = system: OVCAR-8 ovarian
UO-31 renal = system: UO-31 renal
CAKI-1 renal = system: CAKI-1 renal
SNB-19 CNS = system: SNB-19 CNS
OVCAR-3 ovarian = system: OVCAR-3 ovarian
PC-3 prostate = system: PC-3 prostate
U251 CNS = system: U251 CNS
HL-60(TB) leukemia = system: HL-60(TB) leukemia
ACHN renal = system: ACHN renal
NCI-H522 lung = system: NCI-H522 lung
OVCAR-4 ovarian = system: OVCAR-4 ovarian
A498 renal = system: A498 renal
MDA-MB-231 breast = system: MDA-MB-231 breast
NCI-H23 lung = system: NCI-H23 lung
SF-539 CNS = system: SF-539 CNS
CCRF-CEM leukemia = system: CCRF-CEM leukemia
TK-10 renal = system: TK-10 renal
SNB-75 CNS = system: SNB-75 CNS
KM12 colon = system: KM12 colon
HOP-92 NSCLC = system: HOP-92 NSCLC
MDA-MB-435 = system: MDA-MB-435
LOX IMVI melanoma = system: LOX IMVI melanoma
RPMI-8226 leukemia = system: RPMI-8226 leukemia
NCI-H460 lung = system: NCI-H460 lung
UACC-257 melanoma = system: UACC-257 melanoma
IGROV1 ovarian = system: IGROV1 ovarian
HS 578T breast = system: HS 578T breast
MCF7 breast = system: MCF7 breast
SK-OV-3 ovarian = system: SK-OV-3 ovarian
A549 NSCLC = system: A549 NSCLC
NCI-H226 lung = system: NCI-H226 lung
SR leukemia = system: SR leukemia
HOP-62 NSCLC = system: HOP-62 NSCLC
DU-145 prostate = system: DU-145 prostate
SN12C renal = system: SN12C renal
786-0 renal = system: 786-0 renal
SK-MEL-5 melanoma = system: SK-MEL-5 melanoma
OVCAR-5 ovarian = system: OVCAR-5 ovarian
SW-620 colon = system: SW-620 colon
HCT-116 colon = system: HCT-116 colon
SF-295 CNS = system: SF-295 CNS
T-47D breast = system: T-47D breast
MDA-N = system: MDA-N
COLO 205 colon = system: COLO 205 colon
SK-MEL-2 melanoma = system: SK-MEL-2 melanoma
K-562 leukemia = system: K-562 leukemia
NCI/ADR-RES ovarian = system: NCI/ADR-RES ovarian
M14 melanoma = system: M14 melanoma
MOLT-4 leukemia = system: MOLT-4 leukemia
MALME-3M melanoma = system: MALME-3M melanoma
HCC-2998 colon = system: HCC-2998 colon
UACC-62 melanoma = system: UACC-62 melanoma
EKVX NSCLC = system: EKVX NSCLC
BT-549 breast = system: BT-549 breast
HT29 colon = system: HT29 colon

Measured: TGI

CC(C)CCCCCCCC(O)CC(=O)NC(CS(=O)(=O)O)C(=O)NC(CC(C)C)C(=O)NCCCC(=O)NC(Cc1cnc[nH]1)C(=O)NC(C)C(=O)NC1C(=O)NC(C(C)O)C(=O)NC(Cc2cnc[nH]2)C(=O)NC(C)C(=O)NC(C(C)O)C(=O)OC1C (configuration not stated) (X49-[Cya]L[GABA]HATTHAT; ester 6-C; configuration not given here)
> 25 µM: all assays above
